# Where two headings read alike, the source gives them in different places.
# Tests used:
# [1] = test system: K. pneumoniae ATCC 700603 ESBL-positive; assay: combination disc test CDT-ESBL; type: cell-based; conditions: Klebsiella pneumoniae, ATCC700603; agent 0.3 mg per disc; read-out: Diameter of inhibition zone, CAZ-30 disc with agent
# [2] = MTT-based viability assay; type: cell-based; conditions: human, 72 h, read-out: Viability of MRC-5 cells (% of viable cells ± SD)
# Protocol: MRC-5 human fibroblasts (ECACC) were cultured in MEME, Minimum Essential Medium Eagle (Merck) supplemented with 10% fetal bovine serum (Merck), 2 mM l-glutamine, antibiotics (100 U/mL penicillin, 100 μg/mL streptomycin, Merck) and 1% non-essential amino acids (Merck). Cells were grown in 75 cm^2 cell culture flasks (Sarstedt) in a humidified atmosphere of CO2/air (5/95%) at 37 °C. MTT-based viability assay was conducted as described previously. Optical densities were measured at 570 nm using a BioTek microplate reader. All measurements were carried out in three replicates, and the results were expressed as a percent of viable cells versus control cells.
# [3] = test system: E. coli 77 CMY-2-positive; assay: combination disc test CDT-AmpC; type: cell-based; conditions: Escherichia coli; agent 0.3 mg per disc; read-out: Diameter of inhibition zone, CAZ-30 disc with agent
# [4] = test system: P. aeruginosa MUW 700 AmpC(+); assay: MIC of tested agent alone, microdilution; type: cell-based; conditions: Pseudomonas aeruginosa; read-out: MIC of agent alone
# Protocol: (§1) To examine the ability of tested agents to inhibit various carbapenemases and AmpC-enzymes, their synergy with antibiotics against β-lactamase-producing strains was assessed by checkerboard microdilution assay, with slight modification. Checkerboards were prepared in microtiter plates, with seven two-fold dilutions of β-lactams (1–64 mg/L) in the rows and three two-fold dilutions of tested agents and PBA (4–16 mg/L) in the columns. Tested agents’ concentrations were limited to the concentrations at which the newest commercially available BLIs (vaborbactam, relebactam, and avibactam) are used in susceptibility testing. Plates were inoculated and incubated as in the MIC microdilution assay. Parallel, MICs of tested agents and PBA alone were determined by the microdilution assay. Following the incubation, antibiotic MICs in the presence of each agent’s concentration were determined. Moreover, for the first well without growth found in each checkerboard row and column along the growth/non-growth interface, the fractional inhibitory concentration index (FICI) was calculated using the formula below:FICI = [(MIC of antibiotic in combination)/(MIC of antibiotic alone)] + [(MIC of the tested agent in combination)/(MIC of tested agent alone)].
# [5] = test system: K. pneumoniae ATCC BAA-1705 KPC-2(+); assay: MIC of tested agent alone, microdilution; type: cell-based; conditions: Klebsiella pneumoniae, ATCCBAA1705; read-out: MIC of agent alone
# Protocol: as §1
# [6] = test system: K. pneumoniae 81 KPC-3(+); assay: MIC of tested agent alone, microdilution; type: cell-based; conditions: Klebsiella pneumoniae; read-out: MIC of agent alone
# Protocol: as §1
# [7] = test system: K. pneumoniae 83 KPC-3(+), CTX-M-3(+); assay: MIC of tested agent alone, microdilution; type: cell-based; conditions: Klebsiella pneumoniae; read-out: MIC of agent alone
# Protocol: as §1
# E. coli 76 KPC-2(+) = assay: MIC of tested agent alone, microdilution; type: cell-based; conditions: Escherichia coli; read-out: MIC of agent alone
# Protocol: as §1
# E. coli 77 CMY-2(+) = assay: MIC of tested agent alone, microdilution; type: cell-based; conditions: Escherichia coli; read-out: MIC of agent alone
# Protocol: as §1
# [8] = test system: C. parapsilosis ATCC 22019; assay: antifungal activity (disc-diffusion, MIC, MFC); type: cell-based, Candida parapsilosis; conditions: Lodderomyces parapsilosis, ATCC22019; fluconazole by Etest
# Protocol: (§2) Direct antimicrobial activity against Gram-negative and Gram-positive bacterial strains, as well as against yeast, was examined as previously described by the disc-diffusion test, the MIC determination assay, the MBC (for bacteria), and the MFC (for yeasts) determination tests. All the above-mentioned tests were performed according to EUCAST [71, 72] and CLSI [73, 74, 75, 76, 77] recommendations. The following reference agents were used: nitrofurantoin (for Gram-negative rods), linezolid (for Gram-positive bacteria), and fluconazole (in the case of fungi). The new aromatic diboronic acids were dissolved in DMSO (Sigma, St. Louis, MO, USA). In the disc-diffusion test, the concentration of new agents was 0.4 mg per disc.
# [9] = test system: C. guilliermondii IBA 155; assay: antifungal activity (disc-diffusion, MIC, MFC); type: cell-based, Candida guilliermondii; conditions: Meyerozyma guilliermondii, IBA155; fluconazole by Etest
# Protocol: as §2
# C. krusei ATCC 6258 = assay: antifungal activity (disc-diffusion, MIC, MFC); type: cell-based, Candida krusei; conditions: Pichia kudriavzevii, ATCC6258; fluconazole by Etest
# Protocol: as §2
# [10] = test system: K. pneumoniae ATCC BAA 1705 KPC-2-positive; assay: combination disc test CDT-KPC; type: cell-based; conditions: Klebsiella pneumoniae, BAA1705; agent 0.3 mg per disc; read-out: Diameter of inhibition zone, MEM-10 disc with agent
# E. faecium ATCC 6057 = assay: direct antimicrobial activity (disc-diffusion, MIC, MBC); type: cell-based; conditions: Enterococcus faecium, ATCC6057
# Protocol: as §2
# E. faecalis ATCC 29212 = assay: as above; type: cell-based; conditions: Enterococcus faecalis, ATCC29212
# Protocol: as §2
# S. aureus ATCC 6538P = assay: as above; type: cell-based; conditions: Staphylococcus aureus, ATCC6538P; for zone of inhibition at 0.4 mg/disc: 0.4 mg per disc, 9 mm disc (linezolid 0.03 mg, 6 mm disc), - no zone, read-out: Diameter of inhibition zone
# Protocol: as §2
# [11] = test system: S. aureus ATCC 43300 MRSA; assay: as above; type: cell-based; conditions: Staphylococcus aureus; for zone of inhibition at 0.4 mg/disc: 0.4 mg per disc, 9 mm disc (linezolid 0.03 mg, 6 mm disc), - no zone, read-out: Diameter of inhibition zone
# Protocol: as §2
# [12] = test system: S. epidermidis ATCC 12228; assay: as above; type: cell-based; conditions: Staphylococcus epidermidis, ATCC12228
# Protocol: as §2
# [13] = test system: P. aeruginosa MUW 700 cAmpC-positive; assay: combination disc test CDT-AmpC; type: cell-based; conditions: Pseudomonas aeruginosa; agent 0.3 mg per disc; read-out: Diameter of inhibition zone, CAZ-30 disc with agent
# C. tropicalis ATCC 750 = assay: antifungal activity (disc-diffusion, MIC, MFC); type: cell-based; conditions: Candida tropicalis, ATCC750; fluconazole by Etest
# Protocol: as §2
# C. albicans ATCC 90028 = assay: antifungal activity (disc-diffusion, MIC, MFC); type: cell-based; conditions: Candida albicans, ATCC90028; fluconazole by Etest
# Protocol: as §2
# S. cerevisiae ATCC 9763 = assay: antifungal activity (disc-diffusion, MIC, MFC); type: cell-based; conditions: Saccharomyces cerevisiae, ATCC9763; fluconazole by Etest
# Protocol: as §2
# C. tropicalis IBA 171 = assay: antifungal activity (disc-diffusion, MIC, MFC); type: cell-based; conditions: Candida tropicalis, IBA171; fluconazole by Etest
# Protocol: as §2
# B. subtilis ATCC 6633 = assay: direct antimicrobial activity (disc-diffusion); type: cell-based; conditions: Bacillus subtilis, ATCC6633; 0.4 mg per disc, 9 mm disc (linezolid 0.03 mg, 6 mm disc); - no zone; read-out: Diameter of inhibition zone
# Protocol: as §2
# [14] = 0.4 mg per disc, 9 mm disc (linezolid 0.03 mg, 6 mm disc), - no zone, read-out: Diameter of inhibition zone
SMILES,zone of inhibition at 300 µg/disc [1] [mm],"viability at 72 h, 12.5 mg/L ([2]; MRC-5 human fibroblasts) [%]","viability at 72 h, 25 mg/L ([2]; MRC-5 human fibroblasts) [%]","viability at 72 h, 50 mg/L ([2]; MRC-5 human fibroblasts) [%]",zone of inhibition at 300 µg/disc [3] [mm],MIC [4] [µg/mL],MIC [5] [µg/mL],MIC [8] [µg/mL],MIC [9] [µg/mL],MIC (C. krusei ATCC 6258) [µg/mL],MIC (E. faecium ATCC 6057) [µg/mL],MIC (E. faecalis ATCC 29212) [µg/mL],MIC (S. aureus ATCC 6538P) [µg/mL],MIC [11] [µg/mL],MIC [12] [µg/mL],MIC (C. tropicalis ATCC 750) [µg/mL],MIC (C. albicans ATCC 90028) [µg/mL],MIC (S. cerevisiae ATCC 9763) [µg/mL],MIC (C. tropicalis IBA 171) [µg/mL],zone of inhibition at 0.4 mg/disc (B. subtilis ATCC 6633) [mm],other results
COc1c(B(O)O)cccc1B(O)O [2g],13,111 ± 9.7,117 ± 3.7,103 ± 5.1,20,> 400,> 400,> 400,> 400,> 400,400,> 400,> 400,> 400,> 400,> 400,> 400,> 400,> 400,–,MIC [6]: > 400 µg/mL; MIC [7]: > 400 µg/mL; MIC (E. coli 76 KPC-2(+)): > 400 µg/mL; MIC (E. coli 77 CMY-2(+)): > 400 µg/mL; zone of inhibition at 300 µg/disc [10]: 6 mm; zone of inhibition at 300 µg/disc [13]: 19 mm
OB(O)c1cc(C(F)(F)F)c(B(O)O)cc1C(F)(F)F [1h],–,101 ± 4.3,104 ± 5,98.8 ± 3.2,–,–,–,> 400,> 400,> 400,400,400,400,400,200,> 400,> 400,> 400,> 400,12,zone of inhibition at 0.4 mg/disc (S. aureus ATCC 6538P): 13 mm; zone of inhibition at 0.4 mg/disc [11]: 14 mm
C[Si](C)(C)c1cc(B(O)O)c([Si](C)(C)C)cc1B(O)O [1k],–,–,–,–,–,–,–,> 100,> 100,> 100,100,> 100,100,100,100,> 100,> 100,> 100,> 100,11,"viability at 72 h, 12.5 mg/L [2]: 84.3 ± 0.9%; viability at 72 h, 25 mg/L [2]: 74.2 ± 3.5%; viability at 72 h, 50 mg/L [2]: 28.9 ± 1%"
"CC(=O)NC[C@H]1CN(c2ccc(N3CCOCC3)c(F)c2)C(=O)O1 [LIN, linezolid, reference compound]",–,–,–,–,–,–,–,–,–,–,2,2,1,2,1,–,–,–,–,30,"MBC (E. faecium ATCC 6057): > 128 µg/mL; zone of inhibition at 0.4 mg/disc (E. faecium ATCC 6057; [14]): 14 mm; MBC (E. faecalis ATCC 29212): > 128 µg/mL; zone of inhibition at 0.4 mg/disc (E. faecalis ATCC 29212; [14]): 15 mm; MBC (S. aureus ATCC 6538P): > 128 µg/mL; zone of inhibition at 0.4 mg/disc (S. aureus ATCC 6538P): 25 mm; MBC [11]: > 128 µg/mL; zone of inhibition at 0.4 mg/disc [11]: 25 mm; MBC [12]: > 128 µg/mL; zone of inhibition at 0.4 mg/disc [12, 14]: 26 mm"
"OB(O)c1cc(B(O)O)cc(B(O)O)c1 [4a, benzene-1,3,5-triboronic acid]",14,102 ± 6.9,84.4 ± 6.4,87.9 ± 8.5,20,> 400,> 400,> 400,> 400,> 400,400,> 400,> 400,> 400,> 400,> 400,> 400,> 400,> 400,–,MIC [6]: > 400 µg/mL; MIC [7]: > 400 µg/mL; MIC (E. coli 76 KPC-2(+)): > 400 µg/mL; MIC (E. coli 77 CMY-2(+)): > 400 µg/mL; zone of inhibition at 300 µg/disc [10]: 6 mm; zone of inhibition at 300 µg/disc [13]: 16 mm

# From article PMC10648349, “Aromatic Diboronic Acids as Effective KPC/AmpC Inhibitors” (Molecules, 2023)
